Measured values published in ChEMBL document CHEMBL1201862, “PubChem BioAssay data set” (2004).
The source made the active and inactive calls.

Experiments:
[1] = target: DNA dC->dU-editing enzyme APOBEC-3G (Homo sapiens, UniProt Q9HC16); experiment: Dose Response confirmation of small molecule APOBEC3G DNA Deaminase Inhibitors via a fluorescence-based single-stranded DNA deaminase assay. [Related pubchem assays (depositor defined):AID493012, AID493028]; type: functional
[2] = target: DNA dC->dU-editing enzyme APOBEC-3A (Homo sapiens, UniProt P31941); experiment: A3A deaminase inhibition for selectivity – biochemical, dose response (AID 504722); type: functional
Sequence of DNA dC->dU-editing enzyme APOBEC-3A (P31941 whole entry): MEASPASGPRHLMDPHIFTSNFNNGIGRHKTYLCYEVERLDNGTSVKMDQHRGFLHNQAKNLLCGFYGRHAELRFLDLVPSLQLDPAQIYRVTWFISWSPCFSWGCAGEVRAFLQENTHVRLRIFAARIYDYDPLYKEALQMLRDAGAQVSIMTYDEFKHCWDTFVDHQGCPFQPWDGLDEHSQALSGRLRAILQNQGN

cells [3] = type: functional, cell-based
cells [4] = type: functional, cell-based; remark: listed apart in the source
[5] = target: T1, Heat shock factor protein 1 (Mus musculus, UniProt P38532); experiment: enhancement of HSF1-driven luciferase signal – cell-based, NIH3T3, luminescence, dose retest, confirmation (AID 435004); type: functional;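 also: stress induced by proteasome inhibitor MG132 added 30 min after compound; luciferase reporter driven by HSF1 response element in NIH3T3 cells; actives raise luminescence as potentiators of the MG132 stress response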
T1 sequence (P38532 whole entry): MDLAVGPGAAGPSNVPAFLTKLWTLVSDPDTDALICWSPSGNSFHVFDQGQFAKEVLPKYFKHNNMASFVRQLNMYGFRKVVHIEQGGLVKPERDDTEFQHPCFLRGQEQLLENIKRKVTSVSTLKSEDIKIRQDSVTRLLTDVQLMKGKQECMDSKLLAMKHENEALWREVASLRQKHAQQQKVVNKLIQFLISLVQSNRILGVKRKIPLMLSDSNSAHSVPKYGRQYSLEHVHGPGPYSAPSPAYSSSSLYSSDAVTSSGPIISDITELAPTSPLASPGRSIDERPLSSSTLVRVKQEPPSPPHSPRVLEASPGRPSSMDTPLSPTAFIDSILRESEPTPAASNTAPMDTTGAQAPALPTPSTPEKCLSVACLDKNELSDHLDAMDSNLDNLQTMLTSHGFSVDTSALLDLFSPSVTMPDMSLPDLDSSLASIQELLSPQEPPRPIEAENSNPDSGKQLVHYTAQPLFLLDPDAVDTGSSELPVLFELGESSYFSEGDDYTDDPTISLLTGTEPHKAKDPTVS

[6] = target: Eukaryotic translation initiation factor 4E (Mus musculus, UniProt P63073); experiment: blockers of eIF4G binding by eIF4E – biochemical, TR-FRET, dose response (AID 855); type: functional;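 also: potency for disrupting eIF4E binding to eIF4GI seen as loss of FRET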
Sequence of Eukaryotic translation initiation factor 4E (P63073 whole entry): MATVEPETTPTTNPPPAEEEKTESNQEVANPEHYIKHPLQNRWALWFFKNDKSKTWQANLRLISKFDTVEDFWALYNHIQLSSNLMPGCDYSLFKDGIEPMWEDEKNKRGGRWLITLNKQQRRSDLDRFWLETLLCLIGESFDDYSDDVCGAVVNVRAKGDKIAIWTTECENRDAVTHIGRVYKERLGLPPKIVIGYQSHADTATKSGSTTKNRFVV

cells [7] = experiment: cells
[8] = viability of uninfected HEp-2 cells – cell-based, HTS, cytotoxicity control for RSV inhibitor project, dose response (AID 2410); type: functional; conditions: human respiratory syncytial virus
Vero [9] = experiment: cells; type: functional, cell-based; conditions: Chlorocebus sabaeus
[10] = target: T2, Rac GTPase-activating protein 1 (Homo sapiens, UniProt Q9H0H5); experiment: blockers of MgcRacGAP-driven Rac1 GTP hydrolysis – biochemical, ADP Hunter fluorescence, primary and confirmatory, confirmation (AID 624330); type: functional
T2 sequence (Q9H0H5 whole entry): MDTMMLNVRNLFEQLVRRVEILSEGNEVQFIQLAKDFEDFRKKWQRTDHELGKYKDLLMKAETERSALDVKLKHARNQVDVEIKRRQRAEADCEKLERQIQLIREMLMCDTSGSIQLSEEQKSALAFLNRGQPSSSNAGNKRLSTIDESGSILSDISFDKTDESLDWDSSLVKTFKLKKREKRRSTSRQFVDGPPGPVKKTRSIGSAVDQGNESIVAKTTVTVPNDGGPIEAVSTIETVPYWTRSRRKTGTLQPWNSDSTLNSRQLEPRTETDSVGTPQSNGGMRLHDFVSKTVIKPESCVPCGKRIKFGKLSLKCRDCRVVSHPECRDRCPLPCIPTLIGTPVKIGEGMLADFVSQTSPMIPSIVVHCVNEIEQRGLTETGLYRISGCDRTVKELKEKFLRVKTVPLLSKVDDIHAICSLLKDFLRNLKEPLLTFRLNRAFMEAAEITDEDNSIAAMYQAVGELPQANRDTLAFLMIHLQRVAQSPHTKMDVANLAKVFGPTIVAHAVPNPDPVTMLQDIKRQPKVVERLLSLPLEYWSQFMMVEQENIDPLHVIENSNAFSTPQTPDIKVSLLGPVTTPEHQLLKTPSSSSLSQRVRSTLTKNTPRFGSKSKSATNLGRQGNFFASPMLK

[11] = Trypanosoma cruzi growth suppression in host cells – NIH3T3 host cells, beta-gal luminescence, confirmation (AID 2044); type: functional, cell-based;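 also: intracellular parasites grown in NIH/3T3 mouse fibroblasts as host cells; luminescent beta-galactosidase reporter signal from transgenic T. cruzi replicating inside host cells; inhibitors lower the luminescence signal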
cells [12] = experiment: cells; remark: listed apart in the source
[13] = NIH3T3 cell viability loss – ATP luminescence, mouse fibroblasts, counter-screen, dose response (AID 2010); type: functional, cell-based;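 also: cells exposed to compound for about 90 hours before reading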
Vero [14] = experiment: cells; type: functional; conditions: Chlorocebus sabaeus
[15] = blockers of HIV-1 envelope-mediated cell-cell fusion – cherry-pick, dose response (AID 652057); type: functional, cell-based
[16] = fluconazole-exposed Candida albicans growth modulators – fluorescence, retest, confirmation (AID 2467); type: functional, cell-based
[17] = blockers of HIV-1 ZM109 envelope-driven cell-cell fusion – HeLa effector, CEM target cells, luciferase, cherry-pick, dose response (AID 652058); type: functional, cell-based;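 also: luciferase signal from HIV-1 Env mediated cell-cell fusion of effector and target cells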
[18] = off-target signal loss in HeLa-CEM21 co-culture – HeLa F-luc CTL cells, cherry-picked, counter-screen for HIV-1 Env fusion inhibitor project, dose response (AID 652040); type: functional, cell-based;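 also: potency for signal decrease marking cytotoxic or nonspecific inhibition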
[19] = NIH-3T3 fibroblast cytotoxicity, dose response, cytotoxicity control, cell-based, fluorescence, Alamar Blue, secondary assay (AID 2327); type: functional;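 also: NIH-3T3 mouse fibroblasts cultured with fluconazole at 8 µg/mL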
[20] = HIV-1 AD8 envelope cell-cell fusion blockers – cherry-pick, dose response (AID 652062); type: functional, cell-based;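 also: luciferase signal from cell-cell fusion driven by HIV-1 clade B AD8 Env; potency is for inhibitors of fusion seen as a drop in luminescence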
BJ [21] = experiment: BJ-TERT fibroblast viability loss – cell-based, RAS-independent, luminescence, dose response (AID 1933); type: functional; conditions: Homo sapiens
[22] = DRD fibroblast viability loss – cell-based, non-viral oncogenic, luminescence, dose response (AID 1934); type: functional; conditions: Homo sapiens
[23] = blockers of CRF-binding protein–CRF-R2 complex – cell-based, uHTS hits, 384-well, dose response (AID 651639); type: functional, Homo sapiens; conditions: read-out: IC50_Mean
BJ [24] = experiment: BJ-TERT-LT-ST fibroblast viability loss – cell-based, RAS-independent, luminescence, dose response (AID 1935); type: functional; conditions: Homo sapiens;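 also: BJ fibroblasts immortalized with TERT plus LT and ST oncogenes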
[25] = target: T3, Corticotropin-releasing factor receptor 2/Corticotropin-releasing factor-binding protein (Homo sapiens, UniProt P24387+Q13324); experiment: activators of CRF receptor 2 with binding protein – uHTS hits, confirmation (AID 602473); type: functional; conditions: read-out: EC50_Mean
T3 sequence (Q13324 whole entry): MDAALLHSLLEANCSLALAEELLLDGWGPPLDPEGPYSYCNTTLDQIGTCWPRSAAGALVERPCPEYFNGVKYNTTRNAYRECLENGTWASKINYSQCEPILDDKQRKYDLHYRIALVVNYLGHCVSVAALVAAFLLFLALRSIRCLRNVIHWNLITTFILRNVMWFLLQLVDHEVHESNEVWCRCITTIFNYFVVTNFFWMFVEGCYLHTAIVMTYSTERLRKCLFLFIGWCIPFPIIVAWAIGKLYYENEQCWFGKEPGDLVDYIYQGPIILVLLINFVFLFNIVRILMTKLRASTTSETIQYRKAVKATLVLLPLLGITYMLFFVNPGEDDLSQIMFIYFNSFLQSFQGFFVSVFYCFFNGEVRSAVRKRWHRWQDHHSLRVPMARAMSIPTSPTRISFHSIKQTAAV
T3 sequence (P24387 whole entry): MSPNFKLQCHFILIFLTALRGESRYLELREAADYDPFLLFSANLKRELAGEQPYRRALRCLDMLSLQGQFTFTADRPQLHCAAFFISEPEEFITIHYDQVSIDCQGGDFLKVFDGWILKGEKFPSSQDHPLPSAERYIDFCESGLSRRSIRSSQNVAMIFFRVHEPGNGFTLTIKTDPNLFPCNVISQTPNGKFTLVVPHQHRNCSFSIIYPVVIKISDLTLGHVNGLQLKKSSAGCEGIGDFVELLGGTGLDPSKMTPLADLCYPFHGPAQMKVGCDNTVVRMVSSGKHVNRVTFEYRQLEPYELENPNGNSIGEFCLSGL

[26] = target: T3, Corticotropin-releasing factor receptor 2/Corticotropin-releasing factor-binding protein; experiment: Dose Response confirmation of uHTS hits for small molecule antagonists of the CRF-binding protein and CRF-R2 receptor complex.; type: functional; conditions: read-out: IC50_Mean
BJ [27] = experiment: cells; type: functional, cell-based; conditions: Homo sapiens

Sequence of DNA dC->dU-editing enzyme APOBEC-3G (Q9HC16 whole entry): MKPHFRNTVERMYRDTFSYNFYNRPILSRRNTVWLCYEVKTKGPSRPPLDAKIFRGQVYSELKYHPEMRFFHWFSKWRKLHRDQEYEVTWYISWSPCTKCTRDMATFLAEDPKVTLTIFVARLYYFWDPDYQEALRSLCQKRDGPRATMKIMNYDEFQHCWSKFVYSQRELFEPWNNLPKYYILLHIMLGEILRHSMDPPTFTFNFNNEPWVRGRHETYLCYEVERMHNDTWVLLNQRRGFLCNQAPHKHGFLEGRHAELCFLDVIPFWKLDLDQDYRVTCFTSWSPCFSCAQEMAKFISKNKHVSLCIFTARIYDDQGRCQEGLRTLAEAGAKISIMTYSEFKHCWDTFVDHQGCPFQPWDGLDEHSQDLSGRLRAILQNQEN

Cn1c(S)nnc1-c1csc(-c2ccccc2)n1
IC50 [1]: 3.06 µM (active) | IC50 [2]: > 100 µM (inactive)

Cc1cc(O)nc(SCC(=O)NCCc2ccccc2)n1
EC50 (cells [3]): > 29.9 µM (inactive) | IC50 (cells [4]): > 29.9 µM (inactive)

C=CCSc1nc(-c2ccc(OC)cc2)c(C#N)c(=O)n1CC=C
EC50 [5]: 12.7 µM (active) | IC50 [6]: 50 µM (inactive)

COCCn1c(SC(C)C(=O)Nc2ncc(Cl)cc2Cl)nc2ccccc21 (stereo not given)
IC50 (cells [7]): 14.8 µM (active) | CC50 [8]: 25.5 µM (active) | IC50 (Vero [9]): 8.99 µM (active)

CCOc1ccc(N2C(=O)C(CC(=O)Nc3ccccc3)N(Cc3ccccn3)C2=S)cc1 (stereo not given)
IC50 (cells [7]): 5 µM (active) | CC50 [8]: 33.6 µM (active)

Cc1cc(-c2nnc(S)n2/N=C/c2ccccc2[N+](=O)[O-])[nH]n1
IC50 [1]: 6.21 µM (active) | IC50 [10]: 107 µM (active) | IC50 [2]: > 100 µM (inactive)

S=C(NCCc1ccccc1)N1CCn2cccc2C1c1cccnc1 (stereo not given)
EC50 [11]: < 0.1 µM (active) | EC50 (cells [12]): 0.112 µM (active) | EC50 [13]: > 60 µM (not active)

CC(C)Cc1ccc(CN2CCCC(NC(=O)c3nn(C)c(=O)c4ccccc34)C2)cc1 (stereo not given)
EC50 [11]: < 0.1 µM (active) | EC50 (cells [12]): 0.021 µM (active) | EC50 [13]: 8.66 µM (active)

COc1cc2c(cc1OC)CN(C(=O)c1cccc(S(=O)(=O)N3CCc4ccccc43)c1)CC2
CC50 (Vero [14]): > 25 µM (active) | IC50 (cells [7]): 45.9 µM (active) | CC50 [8]: 18.7 µM (active) | IC50 (Vero [9]): 19.5 µM (active)

O=C(NC1CCCCC1)C(c1ccc(Cl)cc1)N(C(=O)c1cnccn1)c1ccc2c(c1)OCO2 (stereo not given)
AC50 [15]: 3.15 µM (active) | EC50 [16]: > 38 µM (not active) | AC50 [17]: 2.47 µM (active) | AC50 [18]: 7.12 µM (active) | EC50 [19]: > 150 µM (inactive) | AC50 [20]: 1.95 µM (active)

CCn1c(SC)nnc1-c1sc2cc(Cl)ccc2c1Cl
IC50 (cells [7]): 9.26 µM (active) | CC50 [8]: 11.2 µM (active)

CCc1nnc(S)n1/N=C/c1ccc(N(CC)CC)cc1
IC50 [1]: 6.69 µM (active) | IC50 [2]: > 100 µM (inactive)

CC(C)(CO)CNC1CCCN(C2Cc3ccccc3C2)C1 (stereo not given)
EC50 [11]: < 0.1 µM (active) | EC50 (cells [12]): 0.12 µM (active) | EC50 [13]: 10.5 µM (active)

COc1ccc(C(=O)/C(C#N)=N/Nc2ccccc2[N+](=O)[O-])cc1
EC50 (BJ [21]): 10.7 µM (active) | EC50 [22]: 2.84 µM (active) | IC50 [23]: 11 µM (active) | EC50 (BJ [24]): 21.5 µM (inconclusive) | EC50 [25]: > 53 µM (inactive) | IC50 [26]: 4.66 µM (active) | EC50 (BJ [27]): 19.4 µM (inconclusive)

O=C(CNc1ccccc1)N/N=C/c1ccc([N+](=O)[O-])o1
EC50 [11]: < 0.1 µM (active) | EC50 (cells [12]): 0.091 µM (active) | EC50 [25]: > 53 µM (inactive) | IC50 [26]: > 47.1 µM (inactive) | EC50 [13]: > 60 µM (not active)

CCN(C1CCCCC1)S(=O)(=O)c1ccc(S(=O)(=O)N(CC(=O)Nc2ccccc2)C2CC2)cc1
AC50 [15]: 4.9 µM (active) | EC50 [11]: 1.93 µM (active) | AC50 [17]: 6.25 µM (active) | AC50 [18]: 27.9 µM (active) | EC50 [13]: > 60 µM (not active) | AC50 [20]: 7.31 µM (active)

Cc1ccc(-n2nc3c(=O)n(CC(=O)NCCc4ccccc4C)nc(C)c3c2C)cc1
EC50 (cells [3]): > 29.9 µM (inactive) | IC50 (cells [4]): > 29.9 µM (inactive)

Cc1cc(C[n+]2cc(Cl)ccc2N)c2ncccc2c1
IC50 (cells [7]): 35.7 µM (active) | CC50 [8]: > 50 µM (active)

CC1CCc2c(sc3ncnc(N4CCOCC4)c23)C1 (stereo not given)
AC50 [15]: 22.5 µM (active) | EC50 [16]: > 38 µM (not active) | AC50 [17]: 0.858 µM (active) | AC50 [18]: 20.8 µM (active) | EC50 [19]: > 160 µM (inactive) | AC50 [20]: 4.54 µM (active)

CCCCN(C)Cc1c(C)nc2c(Cl)cccc2c1O
EC50 [11]: < 0.1 µM (active) | EC50 (cells [12]): 0.074 µM (active) | EC50 [13]: > 60 µM (not active)

Nn1c(Cc2cccc3ccccc23)n[nH]c1=S
IC50 [1]: 2.94 µM (active) | IC50 [2]: > 100 µM (inactive)
